Test systems include 786-0 renal; A549 NSCLC; HOP-62 NSCLC; HT29 colon; IGROV1 ovarian; K-562 leukemia; MDA-N; NCI-H460 lung; RXF 393 renal; SF-268 CNS; SK-MEL-28 melanoma; SK-OV-3 ovarian; SNB-19 CNS; TK-10 renal; U251 CNS; UACC-257 melanoma; UACC-62 melanoma; CAKI-1 renal; LOX IMVI melanoma; MALME-3M melanoma.
Common to all, as to test: DTP human tumour cell line panel, 48 h

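48-hour exposure; five concentrations; linearly interpolated endpoints. Definition used: TGI = concentration required for complete inhibition of growth.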

The term TGI denotes the concentration giving total growth inhibition. Read a high TGI as less potent growth arrest. Turning to `Cc1ccc(S(=O)(=O)N2CCCSCCN(S(=O)(=O)c3ccc(C)cc3)CCCSCC2)cc1`, the TGI with 786-0 renal, in the test with A549 NSCLC, in the test on HOP-62 NSCLC, in the test with HT29 colon, in the test on IGROV1 ovarian and with K-562 leukemia was greater than 100 µM each time. Further, the TGI in the test on MDA-N, with NCI-H460 lung, in the test with RXF 393 renal, with SF-268 CNS, in the test with SK-MEL-28 melanoma and with SK-OV-3 ovarian was greater than 100 µM throughout. Further, the TGI in the test with SNB-19 CNS, in the test on TK-10 renal, in the test on U251 CNS, in the test with UACC-257 melanoma and with UACC-62 melanoma was greater than 100 µM each time.

As to `COc1ccc2c(c1)CCN1C3=C(CCC3)C(=O)C[C@@H]21`, the TGI with 786-0 renal, with A549 NSCLC, in the test on CAKI-1 renal, in the test on HOP-62 NSCLC, in the test with HT29 colon and with IGROV1 ovarian was greater than 100 µM throughout. Further, the TGI in the test with K-562 leukemia, with LOX IMVI melanoma, in the test on MALME-3M melanoma, with NCI-H460 lung, with RXF 393 renal and with SF-268 CNS was greater than 100 µM in each case. For the same compound, the TGI in the test with SK-MEL-28 melanoma, in the test on SK-OV-3 ovarian, with SNB-19 CNS, in the test on TK-10 renal, with U251 CNS and with UACC-257 melanoma was greater than 100 µM throughout. Further, the TGI in the test with UACC-62 melanoma was greater than 100 µM.

On to `O=c1[nH]c(=O)n2n1C1C=CC2CC1`, for which the TGI in the test on 786-0 renal, in the test on A549 NSCLC, in the test on CAKI-1 renal, with HOP-62 NSCLC, with HT29 colon and in the test with IGROV1 ovarian was greater than 100 µM in each case. The TGI with K-562 leukemia, in the test on LOX IMVI melanoma, with MDA-N, in the test on NCI-H460 lung, with SF-268 CNS and in the test on SK-MEL-28 melanoma was greater than 100 µM in each case. Further, the TGI in the test on SK-OV-3 ovarian, in the test on SNB-19 CNS, in the test on TK-10 renal, in the test on U251 CNS, in the test with UACC-257 melanoma and with UACC-62 melanoma was greater than 100 µM throughout.

Regarding `CC1CC(C(=O)OC2OC(COC3OC(CO)C(OC4OC(C)C(O)C(O)C4O)C(O)C3O)C(O)C(O)C2O)C2CCC3(C)C(=CCC4(C)C3CCC3C(C)(CO)C(O)C(O)CC34C)C2C1C` (centres undefined), the TGI with 786-0 renal was 51.5 µM; with A549 NSCLC, greater than 100 µM; in the test on CAKI-1 renal, greater than 100 µM; with HOP-62 NSCLC, 37.2 µM; in the test on HT29 colon it was 41.1 µM; in the test with IGROV1 ovarian, 33.2 µM. The TGI in the test with K-562 leukemia was greater than 100 µM; with LOX IMVI melanoma it was 58.8 µM; in the test with MDA-N it was 36.4 µM; with NCI-H460 lung it was 66.6 µM; in the test with SF-268 CNS, 37.8 µM; in the test with SK-MEL-28 melanoma, 33.5 µM. The TGI was greater than 100 µM in the test on SK-OV-3 ovarian; 32 µM in the test on SNB-19 CNS; greater than 100 µM in the test on TK-10 renal; 33.5 µM in the test on U251 CNS; greater than 10 µM in the test with UACC-257 melanoma; 32.7 µM with UACC-62 melanoma.

On to `COC1=CC(=O)NCCN1`, for which the concentration for total growth inhibition (TGI) in the test with 786-0 renal, with A549 NSCLC, in the test with CAKI-1 renal, in the test on HOP-62 NSCLC, in the test on HT29 colon and in the test on IGROV1 ovarian was greater than 100 µM throughout. The TGI in the test with K-562 leukemia is greater than 100 µM; in the test with LOX IMVI melanoma it was 45.2 µM; in the test on MALME-3M melanoma, greater than 100 µM; in the test with NCI-H460 lung, 85.9 µM; in the test with RXF 393 renal, greater than 100 µM; in the test with SF-268 CNS it was greater than 100 µM. Further, the TGI in the test with SK-MEL-28 melanoma, with SK-OV-3 ovarian, with SNB-19 CNS, in the test on TK-10 renal, in the test on U251 CNS and in the test with UACC-257 melanoma was greater than 100 µM throughout. In the test on UACC-62 melanoma, this compound came in with a TGI greater than 100 µM.

With `N#CCCN(CCC#N)c1ccc(C(N=Nc2ccc(Cl)cc2)=Nc2ccc(Cl)cc2)cc1`, the TGI in the test with 786-0 renal was determined as 34.7 µM; with A549 NSCLC it was 41 µM; with CAKI-1 renal it was 45.2 µM; in the test with HOP-62 NSCLC, 50.8 µM; in the test with HT29 colon it was 44.6 µM; in the test on IGROV1 ovarian it was 28.1 µM. Further, the TGI with K-562 leukemia was greater than 100 µM; in the test on MDA-N, 40.8 µM; with NCI-H460 lung, 29.2 µM; in the test on RXF 393 renal, 29.1 µM; with SF-268 CNS it was 33.4 µM; in the test on SK-MEL-28 melanoma, greater than 100 µM. In addition, the TGI is greater than 100 µM in the test with SK-OV-3 ovarian; 53.3 µM in the test with SNB-19 CNS; 33.5 µM with TK-10 renal; 33.2 µM with U251 CNS; 29.7 µM with UACC-257 melanoma; 30.2 µM in the test with UACC-62 melanoma.

Values taken from PubChem BioAssay (NCI).
